Active and inactive are the calls of the source. The calls are words filed in the database; no cut-off is given here.
Experiments:
Nucleic Acid [1] = test: Reversible condensation of Escherichia coli pUC18 DNA assessed as release of condensed DNA at 120 uM incubated for 5 mins followed by addition of […] NaCl by agarose gel electrophoresis; type: nucleic-acid assay
T98G = test: Cytotoxicity against human T98G cells at 30 to 120 uM after 24 hrs by MTT assay; type: cell-based
Nucleic Acid [2] = test: Intercalation at calf thymus DNA assessed as increase in viscosity by viscosity titration assay; type: nucleic-acid assay; settings: Bos taurus
Nucleic Acid [3] = test: Induction of Escherichia coli pUC18 DNA condensation assessed as diameter of DNA nano particles at 120 uM after 5 mins by atomic force microscopy; type: nucleic-acid assay
Nucleic Acid [4] = test: Induction of Escherichia coli pUC18 DNA condensation assessed as hydrodynamic diameter at 60 uM after 5 mins by dynamic light scattering analysis; type: nucleic-acid assay
Nucleic Acid [5] = test: Induction of Escherichia coli pUC18 DNA condensation at 80 uM after 5 mins by agarose gel electrophoresis in presence of 10 to 400 mM NaCl; type: nucleic-acid assay
Nucleic Acid [6] = test: Binding affinity to calf thymus DNA assessed as fluorescence quenching after 2 mins by ethidium bromide displacement assay; type: nucleic-acid assay; settings: Bos taurus
Nucleic Acid [7] = test: Induction of Escherichia coli pUC18 DNA condensation assessed as diameter of DNA nano particles at 60 uM after 5 mins by atomic force microscopy; type: nucleic-acid assay
HepG2 = test: Cytotoxicity against human HepG2 cells at 30 to 120 uM after 24 hrs by MTT assay; type: cell-based; settings: hepg2, 24 h
Nucleic Acid [8] = test: Induction of Escherichia coli pUC18 DNA condensation at 120 uM after 5 mins by agarose gel electrophoresis; type: nucleic-acid assay
Nucleic Acid [9] = test: Induction of Escherichia coli pUC18 DNA condensation assessed as hydrodynamic diameter at 120 uM after 5 mins by dynamic light scattering analysis; type: nucleic-acid assay
Nucleic Acid [10] = test: Induction of Escherichia coli pUC18 DNA condensation at above 120 uM after 5 mins by agarose gel electrophoresis; type: nucleic-acid assay
Nucleic Acid [11] = test: Induction of Escherichia coli pUC18 DNA condensation at 300 uM after 5 mins by agarose gel electrophoresis; type: nucleic-acid assay
[12] = Cytotoxicity against human T98G cells assessed as cell viability at 120 uM after 24 hrs by MTT assay; type: cell-based; settings: read-out: Activity
[13] = Cytotoxicity against human HepG2 cells assessed as cell viability at 120 uM after 24 hrs by MTT assay; type: cell-based; settings: read-out: Activity

| Compound | Activity (Nucleic Acid [1]) | Activity (Nucleic Acid [2]) | Activity (Nucleic Acid [3]) | Activity (Nucleic Acid [4]) | Activity (Nucleic Acid [5]) | Kb (Nucleic Acid [6]) | Activity (Nucleic Acid [7]) | Activity (Nucleic Acid [8]) | Activity (Nucleic Acid [9]) | Activity (Nucleic Acid [11]) | also measured |
| --- | --- | --- | --- | --- | --- | --- | --- | --- | --- | --- | --- |
| c1ccc2c(CC(CN3CCCNCCCNCCC3)CN3CCCNCCCNCCC3)cccc2c1 | Active | inactive | 55 nm | 105 nm | inactive | 1.2 ×10⁵ /M | 47 nm | Active | 146 nm | – | Activity (T98G): Toxic; Activity (HepG2): Toxic |
| c1ccc2c(CCCN3CCCNCCCNCCC3)cccc2c1 | – | – | – | – | – | – | – | – | – | – | Activity (Nucleic Acid [10]): Active |
| c1ccc2c(CN3CCCNCCCNCCC3)cccc2c1 | – | – | – | – | – | – | – | – | – | inactive | – |
| C1CNCCCN(CCCN2CCCNCCCNCCC2)CCCNC1 | – | – | – | – | – | – | – | – | – | inactive | – |
| c1c(CN2CCCNCCCNCCC2)nnn1CCCn1cc(CN2CCCNCCCNCCC2)nn1 | – | – | – | – | – | – | – | – | – | inactive | – |
| c1ccc2c(CC(Cn3cc(CN4CCCNCCCNCCC4)nn3)Cn3cc(CN4CCCNCCCNCCC4)nn3)cccc2c1 | Active | inactive | 56 nm | 181 nm | inactive | 0.98 ×10⁵ /M | 49 nm | Active | 222 nm | – | viability at 24 h, 120 µM [12]: 88%; viability at 24 h, 120 µM [13]: 64% |

— ChEMBL document CHEMBL1949663, “Effective and reversible DNA condensation induced by bifunctional molecules containing macrocyclic polyamines and naphthyl moieties” (Bioorg Med Chem, 2012)
